Laboratory results from US20060130266A1, “Dermal drug delivery system” (priority 2004, published 2006).

Columns and labels:
[1] = In vitro skin permeation, Franz cell pseudo-finite dose study (acyclovir and CF); type: in vitro ADME, human; settings: for Amount in receptor after 60 min: Zovirax cream spiked with 3H-ACV; for EF: acyclovir, vs untreated skin
Protocol: Zovirax® spiked with ^3H-ACV was used as the formulation for the entire study. Briefly, 300 μl of ^3H ACV was placed into a 1.5 ml centrifuge tube and evaporated off, over a stream of air. Approximately 1 g of Zovirax® was weighed into the centrifuge tube and carefully mixed with a fine spatula to achieve a homogenous mix. To test for homogeneity, 3 random samples (top, middle and bottom) were taken and determined for radioactivity via scintillation counting.
(§1) Anodal treatment was conducted by placing the anode electrode in the donor compartment and the opposite electrode (cathode) in the receptor compartment of the Franz cell. Cathodal iontophoresis was conducted vice versa. The current treatment protocols employed were either • (a) iontophoresis: dose was administered simultaneously with current or • (b) post-iontophoresis: dose applied immediately after skin exposure to current. • A current intensity of 0.40 mA was employed for a 10 min period during both protocols. Novel Device (Rotatinig Brush) Procedure
Finite dose permeation experiments were performed using similar conditions as described above. The Franz cell studies were carried out without the use of a donor well, in order to allow for the placement of the iontophoretic device over the epidermal membrane. […] The effectiveness of the seal was confirmed if leakage of receptor fluid from the region of contact between skin and adhesive was not observed.
A formulation with a target dose of approximately 9±1 mg/cm^2 (ACV) and 20±2 mg/cm^2 (CF) was applied to the epidermal membrane surface using a previously calibrated positive displacement pipette. Selected control experiments were then performed as described above (anodal and cathodal iontophoresis was performed by simultaneous application of dose and current over a 10 min period for CF and ACV respectively). At certain time intervals 200 μl of the receiver fluid was carefully withdrawn from the receiver fluid (maximum duration of 4 h). Approximately 4 ml of scintillation cocktail was then added and the ACV sample analysed by scintillation counting, whereas the other penetrant was assayed via the HPLC method already described.

[2] = In vitro skin permeation of angiotensin II, Franz cell infinite dose, EIA analysis; type: in vitro ADME, human
Protocol: Analysis of the peptide was carried out using an enzyme immunoassay (EIA) as described in the EIA booklet. Briefly, a competitive enzyme immunoassay which detects Ang II in biological matrices was employed. The principle of the assay is based upon the competition for antibody binding sites between biotinylated and non-biotinylated peptides. The biotin group on the biotinylated peptide is then conjugated to SA-HRP which in turn reacts with another substrate ([…]) leading to the formation of colour. The absorbance recorded from each well is a direct measure of the extent of binding for each peptide with the antibody. Absorbance was measured using a spectrophotometer. The method was validated by calibrating the response at different concentrations of the peptide (data not shown) and also the ability of the method to assess different concentrations of the penetrant in the presence of any matrices was investigated.
as §1, with “This is a well established physical method of enhancing skin permeation, in vitro, which involves the use of electric current to permeabilise skin and/or promote the migration of drug ions across skin (Cullander, 1992; Guy et al., 2001; Kalia et al., 2004). Anodal” for “Anodal”

[3] = brush B 10 s, 300 Nm^−2, 80 rpm
[4] = brush B 30 s, 300 Nm^−2, 80 rpm
[5] = brush B 60 s, 300 Nm^−2, 80 rpm

Nc1nc2c(ncn2COCCO)c(=O)[nH]1 [acyclovir, Acyclovir]
Amount in receptor after 60 min [1, 3]: 5.06 ± 1.88 µg/cm^2 | Amount in receptor after 60 min [1, 4]: 12.5 ± 4.02 µg/cm^2 | Amount in receptor after 60 min [1, 5]: 30.91 ± 5.45 µg/cm^2 | Amount in receptor after 60 min ([1]; cathodal iontophoresis 10 min, 0.40 mA): 4.95 ± 2.35 µg/cm^2 | Amount in receptor after 60 min ([1]; untreated skin): 0.14 ± 0.08 µg/cm^2 | EF [1, 3]: 36 | EF [1, 4]: 89 | EF [1, 5]: 220 | EF ([1]; cathodal iontophoresis 10 min): 35 | Increase in enhancement factor compared to iontophoresis ([1]; brush B at maximum treatment time (60 s)): ca. 600%

CC[C@H](C)[C@H](NC(=O)[C@H](Cc1ccc(O)cc1)NC(=O)[C@@H](NC(=O)[C@H](CCCNC(=N)N)NC(=O)[C@@H](N)CC(=O)O)C(C)C)C(=O)N[C@@H](Cc1cnc[nH]1)C(=O)N1CCC[C@H]1C(=O)N[C@@H](Cc1ccccc1)C(=O)O [Ang II, Angiotensin II]
EF ([2]; 4 h, delipidisation vs untreated skin): 58 | EF ([2]; 4 h, post-iontophoresis vs untreated skin): 1.7 | EF ([2]; 4 h, rotating brush (brush B) vs untreated skin): 72 | EF ([2]; 4 h, tape-stripping vs untreated skin): 53 | EF ([2]; 24 h, delipidisation vs untreated skin): 49 | EF ([2]; 24 h, post-iontophoresis vs untreated skin): 6 | EF ([2]; 24 h, rotating brush (brush B) vs untreated skin): 63 | EF ([2]; 24 h, tape-stripping vs untreated skin): 27 | Amount in receptor after 4 h ([2]; delipidisation): 15.71 ± 2.85 ng/cm^2 | Amount in receptor after 24 h ([2]; delipidisation): 83.03 ± 24.28 ng/cm^2 | Amount in receptor after 24 h ([2]; post-iontophoresis): 10.02 ± 6.28 ng/cm^2 | Amount in receptor after 4 h ([2]; post-iontophoresis, value on sample re-analysis): 0.46 ± 0.15^+ ng/cm^2 | Amount in receptor after 4 h ([2]; rotating brush (brush B)): 19.45 ± 0.55 ng/cm^2 | Amount in receptor after 24 h ([2]; rotating brush (brush B)): 107.49 ± 19.66 ng/cm^2 | Amount in receptor after 4 h ([2]; tape-stripping): 14.44 ± 4.73 ng/cm^2 | Amount in receptor after 24 h ([2]; tape-stripping): 46.93 ± 15.62 ng/cm^2 | Amount in receptor after 4 h ([2]; untreated skin, 1 mg/ml in PBS): 0.27 ± 0.23 ng/cm^2 | Amount in receptor after 24 h ([2]; untreated skin, 1 mg/ml in PBS): 1.69 ± 1.01 ng/cm^2
